≈ marks a conversion by molar mass, not a printed value. Where two headings read alike, the source gives them in different places. A value given as a limit tells only on which side of the number the result lay.

Data set [1] has as its target T1, human GLP-1 receptor (hGLP-1 R) (Homo sapiens, UniProt P43220).
T1 construct: expressed in transfected cells
Nature of the data set: cAMP response of HEK-293 cells stably expressing human GLP-1 receptor (HTRF). In kind it is cell-based. Conditions: Table 7; cAMP formation. The essentials: (§1)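 cAMP accumulation was read by homogeneous time-resolved fluorescence after 30 min compound exposure at room temperature. Stable receptor-expressing HEK-293 cells, 400000 cells/ml, were used in HEPES-buffered HBSS containing 0.1% BSA and the phosphodiesterase inhibitor IBMX (2 mM).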
For orientation: TR-FRET usually uses a lanthanide donor and a delayed reading to cut background.

Data set [2] deals with T2, human GIP receptor (hGIP R) (Homo sapiens, UniProt P48546).
T2 construct: expressed in transfected cells
T2 sequence (P48546 22-466): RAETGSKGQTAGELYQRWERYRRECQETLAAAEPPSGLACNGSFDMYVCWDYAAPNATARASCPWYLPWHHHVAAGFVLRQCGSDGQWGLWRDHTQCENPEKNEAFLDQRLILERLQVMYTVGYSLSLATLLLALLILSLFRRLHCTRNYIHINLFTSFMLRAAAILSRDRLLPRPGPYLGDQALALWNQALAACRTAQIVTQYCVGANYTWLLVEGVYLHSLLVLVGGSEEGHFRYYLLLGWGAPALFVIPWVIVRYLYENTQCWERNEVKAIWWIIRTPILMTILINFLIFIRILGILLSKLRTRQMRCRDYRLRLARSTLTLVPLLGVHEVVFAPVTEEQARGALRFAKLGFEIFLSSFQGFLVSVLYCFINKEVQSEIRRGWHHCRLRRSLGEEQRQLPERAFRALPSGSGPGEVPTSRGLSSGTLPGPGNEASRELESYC
Nature of the data set: cAMP response of HEK-293 cells stably expressing human GIP receptor (HTRF). It is filed as cell-based. The conditions noted are these: Table 7; cAMP formation. An outline of the steps: as §1

The target of data set [3] is T3, human glucagon receptor (hGLUC R) (Homo sapiens, UniProt P47871).
T3 construct: expressed in transfected cells
T3 sequence (P47871 26-477): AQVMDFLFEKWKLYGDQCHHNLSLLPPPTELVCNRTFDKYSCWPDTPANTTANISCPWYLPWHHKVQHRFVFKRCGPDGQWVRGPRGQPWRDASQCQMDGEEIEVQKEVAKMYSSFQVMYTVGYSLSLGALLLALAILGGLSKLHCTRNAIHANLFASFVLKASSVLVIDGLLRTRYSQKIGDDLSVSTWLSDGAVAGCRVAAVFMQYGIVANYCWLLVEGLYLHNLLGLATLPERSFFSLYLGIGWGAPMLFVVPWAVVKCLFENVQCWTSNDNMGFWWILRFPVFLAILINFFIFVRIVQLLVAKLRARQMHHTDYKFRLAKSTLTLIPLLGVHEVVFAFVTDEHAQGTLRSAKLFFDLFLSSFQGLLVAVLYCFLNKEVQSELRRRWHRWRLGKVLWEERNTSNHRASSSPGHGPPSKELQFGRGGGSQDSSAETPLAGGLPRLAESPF
In words: cAMP response of HEK-293 cells stably expressing human glucagon receptor (HTRF). In kind it is cell-based. The conditions noted are these: Table 7; cAMP formation. The essentials: as §1

Data set [4] can be described thus: Solubility testing in buffer (HPLC-UV of supernatant). It is filed as physicochemical.
Data set [5] is described as follows: Pharmacokinetic testing in mice (plasma LC/MS). In kind it is in vivo. Conditions: mouse, sc, 1 mg/kg s.c. How it is done: Mice were dosed 1 mg/kg subcutaneously (s.c.).
Pharmacokinetic profiles were determined as described in Methods.

Data set [6] deals with T4, human GIP receptor (human) (UniProt P48546).
T4 sequence (looked up): T2 sequence (P48546 22-466)
In words: cell-based or functional assay.

In data set [7] the target is human GLP-1 receptor (human) (UniProt P43220). Nature of the data set: cell-based or functional assay.
Chain of human GLP-1 receptor (human) (P43220 24-463): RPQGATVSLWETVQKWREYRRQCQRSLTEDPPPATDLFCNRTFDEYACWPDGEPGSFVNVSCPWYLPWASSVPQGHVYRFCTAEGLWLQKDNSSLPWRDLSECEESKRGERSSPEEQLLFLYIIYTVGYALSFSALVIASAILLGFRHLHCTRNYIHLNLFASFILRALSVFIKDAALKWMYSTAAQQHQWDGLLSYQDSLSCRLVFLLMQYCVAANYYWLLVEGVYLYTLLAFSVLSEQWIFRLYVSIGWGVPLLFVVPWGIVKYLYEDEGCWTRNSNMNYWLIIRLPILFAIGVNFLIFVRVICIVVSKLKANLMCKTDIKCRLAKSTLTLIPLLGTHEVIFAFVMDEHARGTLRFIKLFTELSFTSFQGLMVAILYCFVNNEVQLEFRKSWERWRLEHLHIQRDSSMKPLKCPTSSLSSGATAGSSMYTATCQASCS

T1 sequence (P43220 24-463): as above

For `CCCCCCCCCCCCCCCC(=O)N[C@@H](CCC(=O)NCCCC[C@H](NC(=O)[C@H](CCC(N)=O)NC(=O)[C@@H](NC(=O)[C@H](CO)NC(=O)[C@H](CC(C)C)NC(=O)[C@H](CC(=O)O)NC(=O)[C@H](CO)NC(=O)[C@@H](NC(=O)[C@H](Cc1ccccc1)NC(=O)[C@@H](NC(=O)CNC(=O)[C@H](CCC(N)=O)NC(=O)C(C)(C)NC(=O)[C@@H](N)Cc1ccc(O)cc1)[C@@H](C)O)[C@@H](C)O)[C@@H](C)CC)C(=O)N[C@@H](CCC(=O)O)C(=O)N[C@@H](CCCCN)C(=O)N[C@@H](CCCNC(=N)N)C(=O)N[C@@H](C)C(=O)N[C@@H](C)C(=O)NC(C)(C)C(=O)N[C@@H](CCC(=O)O)C(=O)N[C@@H](Cc1ccccc1)C(=O)N[C@H](C(=O)N[C@@H](CCC(=O)O)C(=O)N[C@@H](Cc1c[nH]c2ccccc12)C(=O)N[C@@H](CC(C)C)C(=O)N[C@@H](CCCCN)C(=O)N[C@@H](C)C(=O)N[C@H](C)C(=O)NCC(=O)N1CCC[C@H]1C(=O)N[C@@H](CO)C(=O)N[C@@H](CO)C(=O)NCC(=O)N[C@@H](C)C(=O)N1CCC[C@H]1C(=O)N1CCC[C@H]1C(=O)N1CCC[C@H]1C(=O)N[C@@H](CO)C(N)=O)[C@@H](C)CC)C(=O)O` [SEQ ID NO: 14, Y-Aib-Q-G-T-F-T-S-D-L-S-I-Q-K(yE-x53)-E-K-R-A-A-Aib-E-F-I-E-W-L-K-A-dAla-G-P-S-S-G-A-P-P-P-S-N H2], the EC50 in data set [1] was 6.5 pM; in data set [2], 6.2 pM; in data set [3], 62.3 pM. The solubility at 2 h in data set [4] (pH 4.5, target concentration 1.0 mg/mL, read-out: Solubility (pH 4.5)) was 1020 µg/mL (≈ 227 µM); in data set [4] (pH 7.4, target concentration 1.0 mg/mL, read-out: Solubility (pH 7.4)) it was over 1000 µg/mL. The Cmax in data set [5] is 5570 ng/mL. Moreover, in data set [5], the half-life is 2.2 h.
Consider Tyr(1)Ile(12)-exendin-4 (peptide), for which the EC50 hGIP R in data set [6] is 93.9 pM. In data set [7], this compound registered an EC50 hGLP-1 R of 1.3 pM.

As usually defined, the EC50 is the concentration at which the effect is half-maximal. The low end stands for greater potency, the high end for weaker potency. As usually defined, the solubility is the dissolved amount per volume that the medium holds. Usually Cmax stands for the peak of the concentration-time curve. By half-life is commonly meant how long it takes for the measured level to halve. A lower half-life goes with fast loss.

The values above are taken from patent US20140213513A1 (Sanofi, priority 2012, published 2014).
